Source: patent US11987588B2, “Modulators of the beta-3 adrenergic receptor useful for the treatment or prevention of heart failure and disorders related thereto” (Arena Pharmaceuticals, Inc., priority 2017, dated 2024)
“Also recorded” adds a separate entry of the source.

Key:
[1] = tested on: chronic heart failure (CHF) rats; assay: Chronic heart failure (CHF) rat model, attenuation of negative contractile effects of BRL 37344 on left ventricular pressure; format: in vivo; details: 10 min infusion at 3, 10, 30 mg/kg/hr, then bolus of BRL (3 μg/kg)
Method: Beta-3 adrenergic receptor antagonists can be evaluated for effects on cardiac contractility in chronic heart failure (CHF) rats. Beta-3 adrenergic receptor expression is weak in the normal rat heart and higher in the rat heart with CHF. Because beta-3 adrenergic receptor expression is higher in the rat heart with CHF, a compound of the present invention was evaluated for the ability to attenuate the negative contractile effects of the beta-3 adrenergic receptor agonist BRL 37344 (BRL) compared to baseline in this CHF rat model.
Myocardial infarction was induced in male Sprague-Dawley rats by performing left coronary descending artery ligation. […]
Heart failure was evaluated weekly following surgery by testing impaired left ventricular function by echocardiography. Left ventricle end-diastolic volume (LVEDV) and left ventricle end-systolic volume (LVESV) were measured for at least three consecutive cardiac cycles in long-axis view images. Ejection Fraction (EF %) was calculated using the following formula: EF %=(LVEDV-LVESV)/LVEDV. […]
A direct determination of left ventricular function was used for all rats to evaluate the effects of compounds on left ventricular contractility. […] Left ventricular pressure (LVP) was monitored by LabChart with POWERLAB® Data Acquisition System (ADInstruments, Sydney, Australia). […]

[2] = biological target: Beta-3 Adrenergic Receptor (Homo sapiens (Human), UniProt P13945); assay: Homogeneous Time-Resolved Fluorescence (HTRF) cAMP antagonist assay, IC50 determination; format: cell-based; details: CHO-K1 cells stably expressing recombinant receptor, isoproterenol at EC90
Outline: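 CHO-K1 cells stably expressing receptor, 1500 cells/well, preincubated briefly with 10-point 5-fold compound series (top final typically 10 or 100 μM) in PBS with 1 mM IBMX, then challenged with isoproterenol at EC90 for 1 h at room temperature. cAMP read by HTRF against on-plate standard curve; IC50 from dose-response.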

Chain of Beta-3 Adrenergic Receptor (P13945 whole entry, species assumed): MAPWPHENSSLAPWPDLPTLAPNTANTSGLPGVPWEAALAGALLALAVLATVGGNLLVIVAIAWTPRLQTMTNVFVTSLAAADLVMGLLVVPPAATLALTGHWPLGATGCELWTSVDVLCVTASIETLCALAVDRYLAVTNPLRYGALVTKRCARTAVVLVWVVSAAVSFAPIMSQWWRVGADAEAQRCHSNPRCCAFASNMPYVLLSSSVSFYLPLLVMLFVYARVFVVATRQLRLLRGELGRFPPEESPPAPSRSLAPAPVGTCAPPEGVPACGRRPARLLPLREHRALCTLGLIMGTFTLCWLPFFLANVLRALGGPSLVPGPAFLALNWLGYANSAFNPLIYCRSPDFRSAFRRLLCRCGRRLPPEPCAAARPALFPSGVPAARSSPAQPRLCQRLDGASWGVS

| Compound | IC50 [2] | left ventricular pressure (LVP) [1] |
| --- | --- | --- |
| CNS(=O)(=O)c1cccc(OC[C@@H](O)CN[C@H]2COC3(CCN(S(=O)(=O)c4cnc5cc[nH]c5c4)CC3)C2)c1 [Compound 505, 3-((S)-3-((R)-8-(1H-pyrrolo[3,2-b]pyridin-6-ylsulfonyl)-1-oxa-8-azaspiro[4.5]decan-3-ylamino)-2-hydroxypropoxy)-N-methylbenzenesulfonamide] | 8.46 nM | dose-dependent improvement; also recorded: inhibition of negative effects of BRL on left ventricular pressure (LVP) |
| Cc1cc(S(=O)(=O)N2CCC3(CC2)C[C@@H](NC[C@H](O)COc2cccc(S(N)(=O)=O)c2)CO3)ccc1Br [Compound 590, 3-((S)-3-((R)-8-(4-bromo-3-methylphenylsulfonyl)-1-oxa-8-azaspiro[4.5]decan-3-ylamino)-2-hydroxypropoxy)benzenesulfonamide] | 17.4 nM | – |
| NS(=O)(=O)c1cccc(OC[C@@H](O)CN[C@H]2COC3(CCN(S(=O)(=O)c4cccc(Cl)c4)CC3)C2)c1 [Compound 591, 3-((S)-3-((R)-8-(3-chlorophenylsulfonyl)-1-oxa-8-azaspiro[4.5]decan-3-ylamino)-2-hydroxypropoxy)benzenesulfonamide] | 149 nM | – |

Further molecules by falling IC50 [2], results first:

| IC50 [2] | Compound | left ventricular pressure (LVP) [1] |
| --- | --- | --- |
| 1960 nM | CCn1ccc(=O)c(S(=O)(=O)N2CCC3(CC2)C[C@@H](NC[C@H](O)COc2cccc(S(=O)(=O)NC)c2)CO3)c1 [Compound 588, 3-((S)-3-((R)-8-(1-ethyl-4-oxo-1,4-dihydropyridin-3-ylsulfonyl)-1-oxa-8-azaspiro[4.5]decan-3-ylamino)-2-hydroxypropoxy)-N-methylbenzenesulfonamide] | – |
| 1450 nM | CNS(=O)(=O)c1cccc(OC[C@@H](O)CN[C@H]2COC3(CCN(c4ccncn4)CC3)C2)c1 [Compound 589, 3-((S)-2-hydroxy-3-((R)-8-(pyrimidin-4-yl)-1-oxa-8-azaspiro[4.5]decan-3-ylamino)propoxy)-N-methylbenzenesulfonamide] | – |
| 21 nM | CNS(=O)(=O)c1cccc(OC[C@@H](O)CN[C@H]2COC3(CCN(S(=O)(=O)c4cccc(Cl)c4)CC3)C2)c1 [Compound 592, 3-((S)-3-((R)-8-(3-chlorophenylsulfonyl)-1-oxa-8-azaspiro[4.5]decan-3-ylamino)-2-hydroxypropoxy)-N-methylbenzenesulfonamide] | – |
